Data set [1] has as its system cycloisomaltotetraose-forming enzyme from Agreia sp. D1110 (NITE BP-02815). The data set can be described thus: Substrate specificity of cycloisomaltotetraose-forming enzyme (TLC of reaction mixtures). Also: key: - : Not formed; + : Slightly formed; ++ : Formed; +++ : Significantly formed. The format is biochemical. As to conditions: substrate 1% (w/v), 20 units/g-solid of enzyme, pH 6.0, 40°C, 24 hours. An excerpt: Substrate specificity of cycloisomaltotetraose-forming enzyme was investigated using various saccharides as substrates. Aqueous solutions containing D-glucose, maltose, isomaltose, panose, isomaltotriose, isomaltotetraose, isomaltopentaose, isomaltohexaose, isomaltoheptaose, dextran T10 (average molecular weight: 10,000, commercialized by Pharmacosmos A/s., Denmark), dextran T70 (average molecular weight: 70,000, commercialized by Pharmacosmos A/s., Denmark), or dextran T2000 (average molecular weight: 2,000,000, commercialized by Pharmacosmos A/s., Denmark) were prepared as substrate solutions. To each substrate solution, acetate buffer and calcium chloride were added to give final concentrations of 50 mM and 1 mM, respectively, and then resulting solutions were admixed with 20 units/g-solid of cycloisomaltotetraose-forming enzyme from Agreia sp. […] To examine the saccharides in each reaction mixture before and after the reaction, saccharides were separated by silica gel thin-layer chromatography (hereinafter, abbreviated as "TLC") using "[…] 60F254", a TLC aluminum plate (10 x 20 cm) and a solvent (2-propanol/1-butanol/water, volume ratio of 12:3:4) with two-times ascending method. The separated saccharides on the plate were detected by visualizing the spots with sulfate-methanol method, and the degree of forming cycloisomaltotetraose from each substrate and the products other than cycloisomaltotetraose were investigated.

The test system is the same in data set [2]. The data set can be described thus: Action of cycloisomaltotetraose-forming enzyme on isomaltopentaose (TLC). As to conditions: 1% (w/v) isomaltopentaose, 2.0 units/g-isomaltopentaose, pH 6.0, 40°C, 24 hours. In kind it is biochemical. As for the experimental part:
As a part of examining the substrate specificity of cycloisomaltotetraose-forming enzyme, the action of the enzyme on isomaltopentaose was investigated. To 0.5 mL of 50 mM acetate buffer (pH 6.0) containing 1% (w/v) of isomaltopentaose (prepared in Hayashibara Co., Ltd., Okayama, Japan, purity: 98.1% by weight) and 0.006% (w/v) hinokitiol as a preservative, 2.0 units/g-isomaltopentaose of a purified cycloisomaltotetraose-forming enzyme from Agreia sp. D1110 (NITE BP-02815), obtained by the method in Experiment 6, was added, and the resulting mixture was incubated at 40°C for 24 hours and then heated at 100°C for 10 min to inactivate the enzyme. To examine the reaction products in the reaction mixture, saccharides were separated by TLC using "KIESELGEL 60", a TLC aluminum plate (10 x 20 cm) and a solvent (acetonitrile/water/ethyl acetate/1-propanol, volume ratio of 85:70:20:50) and two-times ascending method. The separated saccharides on the plate were detected by visualizing the spots with sulfate-methanol method, and the reaction products formed from isomaltopentaose were investigated.

Data set [3] is described as follows: Digestivity test using small intestinal mucosal enzyme. The format is in vitro ADME. As to conditions: rat, small intestine mucosal enzyme, 1% by weight, pH 6.0, 50 units/g-cycloisomaltotetraose, 37°C, read-out: residual rate (%) of cycloisomaltotetraose after the enzymatic reaction. On the procedure: To the substrate solution, 50 units/g-cycloisomaltotetraose, as maltose-hydrolyzing activity, of small intestine mucosal enzyme (α-glucosidase) prepared from rat small intestine acetone powder, commercialized by Sigma-Aldrich Co., was added, and the resulting mixture was incubated at 37°C for 24 hours and then heated at 100°C for 10 min to inactivate the enzyme. The amounts of cycloisomaltotetraose in the solution before and after the reaction were determined by HPLC, and the residual rate (%) of cycloisomaltotetraose after the enzymatic reaction, i.e., (the amount after the reaction/the amount before the reaction) x 100, was measured.

A short description of data set [4]: Thermal stability of cycloisomaltotetraose in aqueous solution. The conditions noted are these: 7% (w/v) aqueous solution, 120°C. In kind it is physicochemical. As for the experimental part:
An aqueous cycloisomaltotetraose solution with a solid concentration of 7% (w/v) was prepared by dissolving the crystalline cycloisomaltotetraose preparation with a purity of 99.5% by weight, obtained in Experiment 3-1. Eight milliliters each of the aqueous solution was taken in a glass centrifuge tube with a screw cap, sealed, and then heated for 30 to 90 min at 120°C. The solutions before heating and those after heating for various times were subjected to the measurement for the degree of coloring and for the cycloisomaltotetraose purity by HPLC method. The degree of coloring was defined as the absorbance at 480 nm measured by using a 1-cm cell.

Data set [5] is described as follows: pH stability of cycloisomaltotetraose. As to conditions: 4% (w/v), 100°C; for Degree of coloring (A480nm): 24 hours; for remaining at 24 h: read-out: Purity of cycloisomaltotetraose (% by weight). The format is physicochemical. As for the experimental part:
The crystalline cycloisomaltotetraose preparation obtained in Experiment 3-1 was dissolved in various buffers to make 7 kinds of aqueous cycloisomaltotetraose solutions with a cycloisomaltotetraose concentration of 4% (w/v), and with the pH adjusted to 3 to 9. Eight milliliters each of the aqueous solution was taken into a glass centrifuge tube with a screw cap, sealed, and heated at 100°C for 24 hours. After cooling them, the measurement for the degree of coloring degree of those aqueous solution and for the cycloisomaltotetraose purity were carried out in the same manner in Experiment 16.

Data set [6] addresses T1, α-glucosidase (Aspergillus niger, UniProt P56526).
T1 construct: purchased Amano Enzyme Co., Ltd. TRANSGLUCOSIDASE L Amano
Put plainly: Preliminary test: hydrolysis by α-glucosidase. The conditions noted are these: preliminary test using a small amount of the reaction product. In kind it is biochemical. On the procedure: (§1) The enzymatic reaction product containing Unknown Saccharide I, obtained in Experiment 1-2, was adjusted to pH 5.0, admixed with 100 U/g-solid of "TRANSGLUCOSIDASE L Amano", α-glucosidase produced by Amano Enzyme Co., Ltd., and 1,000 U/g-solid of glucoamylase commercialized by Nagase ChemteX Co., Ltd., and then reacted at 50°C for 4 days. After the reaction, the reaction was stopped by heating the reaction mixture at about 100°C for 10 min. The saccharides in the resulting reaction mixture were analyzed by analytical high-performance liquid chromatography (hereinafter, abbreviated as "analytical HPLC"). As a result, D-glucose and Unknown Saccharide I were detected at elution times of 58.7 min and 49.4 min, respectively. The saccharide composition of the reaction mixture is 30.0% (w/w) of D-glucose, 65.5% (w/w) of Unknown Saccharide I, and 4.5% (w/w) of partial dextran hydrolysates containing isomaltooligosaccharides.

Data set [7] deals with glucoamylase. The data set can be described thus: Preliminary test: hydrolysis by glucoamylase. In kind it is biochemical. The conditions noted are these: preliminary test using a small amount of the reaction product. On the procedure:
as §1

A short description of data set [8]: Preliminary test: alkaline treatment. As to conditions: preliminary test using a small amount of the reaction product. In kind it is physicochemical.

Molecules are shown by their SMILES.

T1 sequence (P56526 26-985): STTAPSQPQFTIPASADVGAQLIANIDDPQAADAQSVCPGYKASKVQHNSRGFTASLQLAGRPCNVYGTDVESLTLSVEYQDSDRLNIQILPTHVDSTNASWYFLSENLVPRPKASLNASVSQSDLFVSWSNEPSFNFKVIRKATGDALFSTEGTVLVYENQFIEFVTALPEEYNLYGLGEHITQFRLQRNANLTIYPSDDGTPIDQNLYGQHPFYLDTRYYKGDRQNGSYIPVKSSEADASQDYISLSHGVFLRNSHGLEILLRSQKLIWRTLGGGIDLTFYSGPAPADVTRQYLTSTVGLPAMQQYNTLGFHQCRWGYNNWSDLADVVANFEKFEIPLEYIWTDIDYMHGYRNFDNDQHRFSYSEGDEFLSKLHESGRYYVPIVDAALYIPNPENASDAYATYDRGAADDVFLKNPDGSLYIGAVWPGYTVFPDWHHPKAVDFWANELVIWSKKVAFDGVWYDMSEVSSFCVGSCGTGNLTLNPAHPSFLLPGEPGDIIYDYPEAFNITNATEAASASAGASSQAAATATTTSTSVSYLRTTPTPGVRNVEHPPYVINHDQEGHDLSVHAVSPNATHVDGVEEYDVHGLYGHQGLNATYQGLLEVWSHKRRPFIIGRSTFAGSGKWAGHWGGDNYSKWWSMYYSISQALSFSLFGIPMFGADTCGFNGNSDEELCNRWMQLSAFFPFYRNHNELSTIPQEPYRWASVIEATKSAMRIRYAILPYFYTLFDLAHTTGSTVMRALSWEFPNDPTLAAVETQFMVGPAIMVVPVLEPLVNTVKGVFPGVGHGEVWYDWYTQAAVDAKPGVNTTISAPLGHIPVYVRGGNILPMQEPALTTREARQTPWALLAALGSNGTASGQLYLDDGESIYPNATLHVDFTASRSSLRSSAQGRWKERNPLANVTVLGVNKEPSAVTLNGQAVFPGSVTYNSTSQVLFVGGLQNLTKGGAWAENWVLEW

With `OC[C@H]1O[C@H](OC[C@H]2O[C@H](OC[C@H]3O[C@H](OC[C@H]4O[C@H](OC[C@H]5OC(O)[C@H](O)[C@@H](O)[C@@H]5O)[C@H](O)[C@@H](O)[C@@H]4O)[C@H](O)[C@@H](O)[C@@H]3O)[C@H](O)[C@@H](O)[C@@H]2O)[C@H](O)[C@@H](O)[C@@H]1O` (stereo partly drawn) [Isomaltopentaose, isomaltopentaose], the Formation of cycloisomaltotetraose entry in data set [1] is given as “++”. The “reaction products formed from isomaltopentaose” value in data set [2] was “produces cycloisomaltotetraose with isomaltotetraose, also slightly isomaltotriose, isomaltose, glucose and high molecular glucans”.
For the compound `O[C@@H]1[C@@H](O)[C@H]2OC[C@H]3O[C@H](OC[C@H]4O[C@H](OC[C@H]5O[C@H](OC[C@@H](O2)[C@H]1O)[C@H](O)[C@@H](O)[C@@H]5O)[C@H](O)[C@@H](O)[C@@H]4O)[C@H](O)[C@@H](O)[C@@H]3O` [cycloisomaltotetraose, cyclo{→6)-α-D-glucopyranosyl-(1→6)-α-D-glucopyranosyl-(1→6)-α-D-glucopyranosyl-(1→6)-α-D-glucopyranosyl-(1→}], the remaining at 24 h in data set [3] turned out to be 91.6%; in data set [5] (pH 3, Acetate buffer), 93.5%; in data set [5] (pH 4, Acetate buffer) it was 99.4%; in data set [5] (pH 5, Acetate buffer), 99.4%; in data set [5] (pH 6, Tris-HCl buffer), 99.4%; in data set [5] (pH 7, Tris-HCl buffer) it was 99.5%. Also, the remaining at 24 h in data set [5] (pH 8, Tris-HCl buffer) was 99.5%; in data set [5] (pH 9, Ammonium buffer), 99.4%. Besides, the “Degree of coloring (A480nm)” value in data set [4] (heating time 0 min) is listed as 0.000 A480nm; in data set [4] (heating time 30 min), 0.000 A480nm; in data set [4] (heating time 60 min), 0.000 A480nm; in data set [4] (heating time 90 min) it was 0.000 A480nm; in data set [5] (pH 3, Acetate buffer), 0.000 A480nm; in data set [5] (pH 4, Acetate buffer) it was 0.000 A480nm. Moreover, the “Degree of coloring (A480nm)” value in data set [5] (pH 5, Acetate buffer) worked out at 0.000 A480nm; in data set [5] (pH 6, Tris-HCl buffer) it was 0.000 A480nm; in data set [5] (pH 7, Tris-HCl buffer), 0.000 A480nm; in data set [5] (pH 8, Tris-HCl buffer), 0.001 A480nm; in data set [5] (pH 9, Ammonium buffer) it was 0.000 A480nm. In addition, in data set [4] (heating time 0 min), the “Purity of cycloisomaltotetraose (% by weight)” value came out at 99.5 % by weight. Further, in data set [4] (water, heating time 30 min, read-out: Purity of cycloisomaltotetraose (% by weight)), the remaining at 0.5 h stood at 99.5%. Besides, the remaining at 1 h in data set [4] (water, heating time 60 min, read-out: Purity of cycloisomaltotetraose (% by weight)) is 99.5%. In addition, the remaining at 1.5 h in data set [4] (water, heating time 90 min, read-out: Purity of cycloisomaltotetraose (% by weight)) was 99.5%. Further, the “hydrolysis by α-glucosidase” value in data set [6] is “not hydrolyzed”. For the same compound, the hydrolysis by glucoamylase result in data set [7] is “not hydrolyzed”. Moreover, the “decomposition by alkaline treatment” value in data set [8] is “not decomposed”.
As for `OC[C@H]1O[C@H](OC[C@H]2OC(O)[C@H](O)[C@@H](O)[C@@H]2O)[C@H](O)[C@@H](O)[C@@H]1O` (stereo partly drawn) [Isomaltose, isomaltose], the Formation of cycloisomaltotetraose entry in data set [1] was “-”.
`OC[C@H]1O[C@H](O[C@H]2[C@H](O)[C@@H](O)C(O)O[C@@H]2CO)[C@H](O)[C@@H](O)[C@@H]1O` (mixture of isomers) [Maltose, maltose]: the Formation of cycloisomaltotetraose result in data set [1] is “-”.
On to `OC[C@H]1O[C@H](OC[C@H]2O[C@H](OC[C@H]3O[C@H](OC[C@H]4OC(O)[C@H](O)[C@@H](O)[C@@H]4O)[C@H](O)[C@@H](O)[C@@H]3O)[C@H](O)[C@@H](O)[C@@H]2O)[C@H](O)[C@@H](O)[C@@H]1O` (stereo partly drawn) [Isomaltotetraose, isomaltotetraose], for which the Formation of cycloisomaltotetraose result in data set [1] was “+”.
As to `OC[C@H]1O[C@H](OC[C@H]2O[C@H](OC[C@H]3O[C@H](OC[C@H]4O[C@H](OC[C@H]5O[C@H](OC[C@H]6O[C@H](OC[C@H]7OC(O)[C@H](O)[C@@H](O)[C@@H]7O)[C@H](O)[C@@H](O)[C@@H]6O)[C@H](O)[C@@H](O)[C@@H]5O)[C@H](O)[C@@H](O)[C@@H]4O)[C@H](O)[C@@H](O)[C@@H]3O)[C@H](O)[C@@H](O)[C@@H]2O)[C@H](O)[C@@H](O)[C@@H]1O` (stereo partly drawn) [Isomaltoheptaose, isomaltoheptaose], the Formation of cycloisomaltotetraose result in data set [1] is reported as “+++”.
In the case of `OC[C@H]1OC(O)[C@H](O)[C@@H](O)[C@@H]1O` (stereo partly drawn) [D-Glucose, D-glucose], the Formation of cycloisomaltotetraose entry in data set [1] is reported as “-”.
Regarding `OC[C@H]1O[C@H](OC[C@H]2O[C@H](OC[C@H]3O[C@H](OC[C@H]4O[C@H](OC[C@H]5O[C@H](OC[C@H]6OC(O)[C@H](O)[C@@H](O)[C@@H]6O)[C@H](O)[C@@H](O)[C@@H]5O)[C@H](O)[C@@H](O)[C@@H]4O)[C@H](O)[C@@H](O)[C@@H]3O)[C@H](O)[C@@H](O)[C@@H]2O)[C@H](O)[C@@H](O)[C@@H]1O` (stereo partly drawn) [Isomaltohexaose, isomaltohexaose], the Formation of cycloisomaltotetraose result in data set [1] was “+++”.
For `OC[C@H]1O[C@H](OC[C@H]2O[C@H](OC[C@H]3OC(O)[C@H](O)[C@@H](O)[C@@H]3O)[C@H](O)[C@@H](O)[C@@H]2O)[C@H](O)[C@@H](O)[C@@H]1O` (stereo partly drawn) [Isomaltotriose, isomaltotriose], the Formation of cycloisomaltotetraose result in data set [1] is on record as “-”.
For `OCC1OC(OCC2OC(OC3C(CO)OC(O)C(O)C3O)C(O)C(O)C2O)C(O)C(O)C1O` (stereo not drawn) [Panose, panose], in data set [1], the Formation of cycloisomaltotetraose result is listed as “-”.

Source of the values: EP3895711A1, “CYCLOISOMALTOTETRAOSE, CYCLOISOMALTOTETRAOSE PRODUCTION ENZYME, AND PRODUCTION METHODS AND USES THEREOF” (Hayashibara Co., Ltd., priority 2018, dated 2020).
